# Experimental data reported in patent US8501400B2, “Methods and compositions for determining the pathogenic status of infectious agents” (priority 2007, dated 2013).
# Tests used:
# H37Rv cells [1] = assay: Sp6 SML-phage drug susceptibility test: SML generation (RT-PCR) in drug-treated Mtb; format: cell-based; details: 0.2 μg/ml INH, 2 μg/ml STR or 7.5 μg/ml EMB, Sp6 SML-phage MOI of 1 for 4 hr
# H37Rv cells [2] = assay: Effect of mucolytic agents on phage infection and SML generation; format: cell-based, Mtb; details: equal volume of 0.5% NALC/2.9% NaCitrate or 200 mM TCEP/2.9% NaCitrate, one hour at 37° C., then SML-phage 4 hr; HiSalt conditions not given
# [3] = 16 hr treatment at 37° C. with 2 μg/ml RIF
# [4] = 40 hr treatment at 37° C. with 2 μg/ml RIF
SMILES,SML generation after drug treatment (H37Rv cells [1]; [3]),SML generation after drug treatment (H37Rv cells [1]; [4]),Effect on phage infection and SML generation (H37Rv cells [2])
"CC[C@@H](CO)NCCN[C@@H](CC)CO [EMB, Ethambutol]",some detectable SML synthesis,completely abolished,–
"NNC(=O)c1ccncc1 [INH, isoniazid]",some detectable SML synthesis,completely abolished,–
"CC(=O)N[C@@H](CS)C(=O)O [NALC, N-acetyl-L-cysteine]",–,–,no effect
"[H]/N=C(/N)N[C@H]1[C@H](O)[C@@H](O)[C@H](O[C@@H]2O[C@@H](C)[C@](O)(C=O)[C@H]2O[C@@H]2O[C@@H](CO)[C@H](O)[C@@H](O)[C@@H]2NC)[C@@H](N/C(N)=N\[H])[C@@H]1O [STR, Streptomycin]",no detectable SML,no detectable SML,–
"O=C(O)CCP(CCC(=O)O)CCC(=O)O [TCEP, Tris-Carboxyethylphosphine]",–,–,completely abolishes SML generation
